Experimental data from patent US20240228987A1, “HEXOKINASE-DERIVED PEPTIDES AND THERAPEUTICAL USES THEREOF” (INSERM (INSTITUT NATIONAL DE LA SANTÉ ET DE LA RECHERCHE …, priority 2021, published 2024).
Where a SMILES comes first, the peptide text is derived from it. Where no end group is shown, it is not given here. [ ]: non-standard residue; d: D form. The star is where a group is joined. X1 = CC(C)(C(=O)*)n1cc(-c2cccc(C(F)(F)F)c2)nn1; Nle = CCCC[C@H](N)C(=O)O; Aib = CC(C)(N)C(=O)O

Key:
VDAC = target: T1, VDAC (Homo sapiens, UniProt P21796); assay: in-cellulo screening assay: HEK-293 cells transfected with mitoGCaMP2, MJ-induced mitochondrial Ca2+ release through VDAC; type: cell-based; conditions: for activity / affinity for VDAC on the screening assay (mitoGCaMP2 fluorescence): MJ 6 mM
T1 construct: HEK-293 cells, expressing VDAC and HK; endogenous in cells; host or cells: HEK-293 (ATCC), transfected only with the Ca2+ probes mitoGCaMP2 / GCaMP2
T1 sequence (P21796 2-283): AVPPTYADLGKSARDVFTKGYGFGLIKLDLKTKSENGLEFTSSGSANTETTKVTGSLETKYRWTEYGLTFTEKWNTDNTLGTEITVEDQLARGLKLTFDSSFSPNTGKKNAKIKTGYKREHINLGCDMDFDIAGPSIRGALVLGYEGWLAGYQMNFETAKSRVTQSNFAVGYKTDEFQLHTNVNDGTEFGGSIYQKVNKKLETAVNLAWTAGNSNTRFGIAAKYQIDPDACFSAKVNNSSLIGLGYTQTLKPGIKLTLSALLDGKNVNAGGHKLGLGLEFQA
Procedure: The activity of the designed compounds was assessed on HEK-293 cells transfected with mitoGCaMP2. 40,000 cells per well were seeded in 96-well-microplates coated with Poly-D-Lysine (reference 655946, Greiner Bio-One, France) in 200 μl of DMEM supplemented with 10% FBS and 1% PS. 24 h after seeding, cells were transfected with 50 ng of mitoGCaMP2 plasmid per well using jet-PRIME reagent (Polyplus-transfection S.A, France) according to the manufacturer's recommendations. 48 h after transfection, a first measure of fluorescence was performed using the microplate reader CLARIOstar® (BMG Labtech, France). This measurement represented the basal level of Ca2+ into the mitochondria upon transfection. After a wash with 100 μl of PBS, cells were incubated with a mixture of pre-heated (37° C.) MJ at a final concentration of 6 mM and compounds at the indicated final concentrations in PBS containing 0.1% DMSO and 5% EtOH. After 35 min in a cell incubator, a second measure of fluorescence was performed using the microplate reader CLARIOstar®. This measure represented the level of mitochondrial Ca2+ according to the peptide activity. Compounds were tested in triplicates per microplates and in three or five independent experiments for each peptide. For dose effect curves, compounds were tested in triplicates per microplates and in three independent experiments. Results are expressed as the ratio between the second and first measures and normalized to the conditions without compounds containing only PBS with 0.1% DMSO and 5% EtOH. Results are expressed as the means±SD in histogram plots and dose response curves using GraphPad Prism software (version 8.0.1).
The biological screening of the peptide is based on the ability of methyl jasmonate (MJ) to binds and detaches HK-1 from mitochondrial VDAC in a time and dose dependent manner.^16,20 For this purpose, we developed an in-cellulo screening assay in which HEK-293 cells, expressing VDAC and HK,25 were transfected with GCaMP2, a cytoplasmic Ca2+-sensing probe, or with mitoGCaMP2, the same probe addressed to mitochondrial matrix. […] MJ that removes HK from VDAC was used to induce a Ca2+ release outside mitochondria measured through a drop in mitoGCaMP2 fluorescence and an increase in GCaMP2 fluorescence in cells.

[1] = in-vitro metabolic stability in rat serum; type: in vitro ADME; conditions: 25% (v/v) rat serum
Procedure: FIG. 10: Study of the stability of NHKI derived sequence (3c′, 7a′, 7d′, 7f′-g′) towards rat serum (N=3 independent experiments). All peptides were tested at a concentration of 66.6 μmol/L in presence of 25% (v/v) of rat serum and water after incubation at 37° C. for 24 h. Errors bars show the standard deviation.
For each peptide, a stock solution in DMSO was prepared at a 6.66 mmol/L concentration. 70 μL of the solution were taken out and added to 630 μL of MilliQ water to make an aqueous peptide solution (0.666 mmol/L). The reaction consisted in 325 μL of MilliQ water and 125 μL of non-diluted rat serum pre-incubated at 37° C. for about 10-15 min before addition of 50 μL the peptide solution at 0.666 mmol/L. The mixture was incubated at 37° C. with shaking at 1000 rpm. Aliquots (25 μL) were taken at different time points (0 min, 5 min, 15 min, 30 min, 1h, 2h, 3h, 5h, 7h, 24h, 48h) and enzymatic reaction was quenched with 225p L of MeOH to precipitate all serum proteins. The Eppendorf tube was directly centrifuged (14000 rpm) for 20 min at 4° C. to remove precipitated proteins by pelleting.

[2] = target: Elastase (from porcine pancreas, EC 3.4.21.36) (Sus scrofa, UniProt P00772); conditions: Tris·HCl buffer pH 8, 37° C., peptides without Tat
Elastase (from porcine pancreas, EC 3.4.21.36), sequence (P00772 27-266): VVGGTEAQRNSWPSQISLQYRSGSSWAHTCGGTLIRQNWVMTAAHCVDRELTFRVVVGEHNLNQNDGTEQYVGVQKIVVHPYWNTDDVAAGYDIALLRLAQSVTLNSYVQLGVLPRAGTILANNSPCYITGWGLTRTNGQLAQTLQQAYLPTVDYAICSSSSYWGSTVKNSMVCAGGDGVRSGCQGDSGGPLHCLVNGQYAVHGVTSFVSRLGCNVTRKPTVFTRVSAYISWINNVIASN
Procedure: A stock solution of Elastase at 1 mg/mL was prepared in Tris·HCl buffer (50 mM, pH 8, containing 0.5 mM CaCl2,). The stock solution was diluted at 0.94 mg/mL with 658 μL of stock solution in 42 μL of Tris·HCl buffer. All peptides were dissolved in DMSO to prepare a 6.66 mmol/L stock solution. A more diluted peptide solution (0.666 mmol/L) was prepared with 70 μL of stock solution in 630 μL of Tris·HCl buffer pH 8. In a 1.5 mL Eppendorf, 890 μL of Tris·HCl pH 8 was introduced followed by 100 μL of peptide solution (0.666 mmol/L) and incubated for 15 min at 37° C. prior to degradation. Then, 10 μL of Elastase solution (0.94 mg/mL) was added. The reaction mixture was incubated up to 4h at 37° C. with shaking at 1000 rpm. Aliquots (50 μL) were taken at different time points, quenched with 450 μL of MeOH, and centrifuged for 20 min (14000 rpm) at 4° C. The supernatant was transferred into an injection vial and analyzed by LC-MS with an eluting program of 0.1% formic acid in water and 0.1% formic acid in acetonitrile (see analytical data section). The relative concentrations of the remaining peptides and the cleavage products were calculated by integration of the corresponding peak in the HPLC chromatogram/MS trace. A control peptide solution was prepared without the enzyme. […] All proteolytic degradation experiments were carried out in triplicate.

sciatic nerve explants = assay: sciatic nerve explant culture and CARS imaging (demyelination); type: cell-based, mouse; conditions: 3 μM
Text: FIG. 11: Effects of NHKI-derived peptides 3c, 5x, 7d and 7g on sciatic nerve explants cultured in medium supplemented with serum. (A) Representative CARS images showing myelin (green) of an intact sciatic nerve collected and immediately fixed in 4% PFA and a sciatic nerve explant cultured in medium supplemented with FBS referred as negative control. (B) Representative CARS images showing myelin (green) of sciatic nerve explants cultured in medium supplemented with FBS containing NHKI-derived peptides at 3 μM for 24 h. All nerves are represented in longitudinal sections. Healthy myelin sheath (white arrows), Node of Ranvier (white stars) and myelin ovoids (orange arrows) are illustrated. Scale bar: 20 μm. (C) Graph showing the percentage of damaged fibers in intact nerves (white plot), negative controls (light grey plot), 3c and its analog 7d (blue plots) 5x and its analog 7g (red plots). (N=3 independent experiments). Results are expressed as means±SD. Statistical analysis using one-way ANOVA followed by Dunnett's multiple comparison tests. *p<0.05, **p<0.01. ns, non-significant.
Twelve-week-old C57BL6/J mice were euthanized using Pentobarbital (54.7 mg/ml, 100 mg/kg, Centravet, France). First, sciatic nerves were collected, washed in PBS and their epineurium was removed. Next, 5 mm long nerves were put in 24-well microplates (NUNC, Thermo Fisher Scientific, France) in 500 μl of DMEM supplemented with 1% PS and with or without 10% FBS containing the compounds at 3 μM containing 0.1% DMSO, and further incubated in a humidified chamber at 37° C. and 5% CO2. Negative controls consisted in sciatic nerve explant cultures without compounds (only DMEM supplemented with 1% PS, with or without 10% FBS and 0.1% DMSO). Intact sciatic nerves collected and immediately fixed in 4% PFA served as a control of healthy myelin sheath for CARS imaging. After 24 h in culture, sciatic nerve explants were washed three times with PBS and fixed for 1 h in 4% PFA aqueous solution (Electron Microscopy Sciences, Thermo Fisher Scientific, France) at room temperature. All CARS images were acquired with a two-photon microscope LSM 7 MP coupled to an OPO (Zeiss, France) complemented by a delay line. A ×20 water immersion objective (W Plan Apochromat DIC VIS-IR, Zeiss, France) was used for image acquisition. Each acquisition was conducted in three independent experiments. For each experiment, three ROIs per conditions were used to quantify the percentage of damaged fibers per field using Zen software (Zen 2.3 lite, Zeiss, France). Results are expressed as means±SD.
Next, we tested NHKI-derived compound activity on sciatic nerve explant cultures in which Schwann cells demyelinate through a mechanism involving mitochondrial Ca2+ release through VDAC1.44,45,9 Intact myelin was imaged and quantified in sciatic nerve explants using Coherent Anti-Stokes Raman Scattering (CARS) nonlinear microscopy. […] Demyelination was quantified by measuring the percentage of damaged fibers, i.e. displaying ovoid formation, over the total number of fibers imaged.

Schwann cells = conditions: cited from earlier work
[3] = 24 h, medium supplemented with serum
[4] = compounds at 3 μM, compared with 3c, 4d or 5x

## CCCC[C@H](NC(=O)[C@H](CCC(N)=O)NC(=O)[C@@H]1CCCN1C(=O)[C@@H]1CCCN1C(=O)[C@H](CCCNC(=N)N)NC(=O)[C@H](CCCNC(=N)N)NC(=O)[C@H](CCCNC(=N)N)NC(=O)[C@H](CCC(N)=O)NC(=O)[C@H](CCCNC(=N)N)NC(=O)[C@H](CCCNC(=N)N)NC(=O)[C@H](CCCCN)NC(=O)[C@H](CCCCN)NC(=O)[C@H](CCCNC(=N)N)NC(=O)CNC(C)=O)C(=O)N[C@H](C(=O)N[C@@H](C)C(=O)N[C@@H](C)C(=O)N[C@@H](CCC(N)=O)C(=O)N[C@@H](CC(C)C)C(=O)N[C@@H](CC(C)C)C(=O)N[C@@H](C)C(=O)N[C@@H](Cc1ccc(O)cc1)C(=O)N[C@@H](Cc1ccc(O)cc1)C(=O)N[C@@H](Cc1ccccc1)C(=O)N[C@H](C(=O)N[C@@H](CCC(=O)O)C(=O)N[C@@H](CC(C)C)C(=O)N[C@@H](CCCCN)C(N)=O)[C@@H](C)O)[C@@H](C)CC [2a]
VDAC
  IC50: 13.9 ± 3.1 µM

## CC(=O)N[C@@H](C)C(=O)N[C@@H](CCC(N)=O)C(=O)N[C@@H](CC(C)C)C(=O)N[C@@H](CC(C)C)C(=O)NC(C)(C)C(=O)N[C@@H](Cc1ccc(O)cc1)C(=O)N[C@@H](Cc1ccc(O)cc1)C(=O)N[C@@H](Cc1ccccc1)C(=O)N[C@H](C(=O)N[C@@H](CCC(=O)O)C(=O)N[C@@H](CC(C)C)C(=O)N[C@@H](CCCCN)C(N)=O)[C@@H](C)O [7a′] (Ac-AQLL[Aib]YYFTELK-NH2; N-terminus and C-terminus assumed)
[1]; 37° C., after 24 h, read-out: remaining compound in rat serum
  remaining at 24 h, 66.6 µmol/L: ~65%
[2]
  stability towards elastase: improve their stability towards elastase

## CC(=O)N[C@@H](C)C(=O)NC(C)(C)C(=O)N[C@@H](C)C(=O)NC(C)(C)C(=O)N[C@@H](C)C(=O)N[C@@H](CCC(N)=O)C(=O)N[C@@H](CC(C)C)C(=O)N[C@@H](CC(C)C)C(=O)NC(C)(C)C(=O)N[C@@H](Cc1ccc(O)cc1)C(=O)N[C@@H](Cc1ccc(O)cc1)C(=O)N[C@@H](Cc1ccccc1)C(=O)N[C@H](C(=O)N[C@@H](CCC(=O)O)C(=O)N[C@@H](CC(C)C)C(=O)N[C@@H](CCCCN)C(N)=O)[C@@H](C)O [7d′] (Ac-A[Aib]A[Aib]AQLL[Aib]YYFTELK-NH2; N-terminus and C-terminus assumed)
[2]
  stability towards elastase: improve their stability towards elastase

## C[C@H](NC(=O)[C@H](Cc1c[nH]c2ccccc12)NC(=O)[C@H](Cc1c[nH]c2ccccc12)NC(=O)[C@H](CCC(N)=O)NC(=O)[C@H](C)NC(=O)C(C)(C)n1cc(-c2cccc(C(F)(F)F)c2)nn1)C(=O)N[C@@H](Cc1ccc(O)cc1)C(=O)N[C@@H](Cc1ccc(O)cc1)C(=O)N[C@@H](Cc1ccccc1)C(=O)N[C@H](C(=O)N[C@@H](CCC(=O)O)C(=O)N[C@@H](Cc1c[nH]c2ccccc12)C(=O)N[C@@H](CCCCN)C(=O)NCC(=O)N[C@@H](CCCNC(=N)N)C(=O)N[C@@H](CCCCN)C(=O)N[C@@H](CCCCN)C(=O)N[C@@H](CCCNC(=N)N)C(=O)N[C@@H](CCCNC(=N)N)C(=O)N[C@@H](CCC(N)=O)C(=O)N[C@@H](CCCNC(=N)N)C(=O)N[C@@H](CCCNC(=N)N)C(=O)N[C@@H](CCCNC(=N)N)C(=O)N1CCC[C@H]1C(=O)N1CCC[C@H]1C(=O)N[C@@H](CCC(N)=O)C(N)=O)[C@@H](C)O [7f] (X1-AQWWAYYFTEWKGRKKRRQRRRPPQ-NH2)
VDAC
  IC50: 2.6 ± 0.6 µM
[2]
  stability towards elastase: most stable compound

## C[C@H](NC(=O)C(C)(C)n1cc(-c2cccc(C(F)(F)F)c2)nn1)C(=O)N[C@@H](CCC(N)=O)C(=O)N[C@@H](Cc1c[nH]c2ccccc12)C(=O)N[C@@H](Cc1c[nH]c2ccccc12)C(=O)NC(C)(C)C(=O)N[C@@H](Cc1ccc(O)cc1)C(=O)N[C@@H](Cc1ccc(O)cc1)C(=O)N[C@@H](Cc1ccccc1)C(=O)N[C@H](C(=O)N[C@@H](CCC(=O)O)C(=O)N[C@@H](Cc1c[nH]c2ccccc12)C(=O)N[C@@H](CCCCN)C(=O)NCC(=O)N[C@@H](CCCNC(=N)N)C(=O)N[C@@H](CCCCN)C(=O)N[C@@H](CCCCN)C(=O)N[C@@H](CCCNC(=N)N)C(=O)N[C@@H](CCCNC(=N)N)C(=O)N[C@@H](CCC(N)=O)C(=O)N[C@@H](CCCNC(=N)N)C(=O)N[C@@H](CCCNC(=N)N)C(=O)N[C@@H](CCCNC(=N)N)C(=O)N1CCC[C@H]1C(=O)N1CCC[C@H]1C(=O)N[C@@H](CCC(N)=O)C(N)=O)[C@@H](C)O [7g] (X1-AQWW[Aib]YYFTEWKGRKKRRQRRRPPQ-NH2; N-terminus assumed)
Sciatic nerve explants; [3]
  nerve fibers damage: significantly decreased nerve fibers damage
  preservation of the myelin sheath: significantly preserve the myelin sheath at a similar level to an intact nerve
Sciatic nerve explants; 24h, serum-free medium
  myelin sheath pattern: same myelin sheath pattern as an intact nerve
  percentage of damaged fibers: significantly reduced the level of damaged fibers
VDAC; [4]
  activity / affinity for VDAC on the screening assay (mitoGCaMP2 fluorescence): significant higher activity
VDAC; compounds at 10 μM
  activity / affinity for VDAC on the screening assay (mitoGCaMP2 fluorescence): significantly more active than compounds 3c and 5x

## CC(C)CCC[C@@H](C)[C@H]1CC[C@H]2[C@@H]3CCC4=CC(=NO)CC[C@]4(C)[C@H]3CC[C@]12C [olesoxime]
Schwann cells
  demyelination: block demyelination
  mitochondrial calcium release: prevent mitochondrial calcium release

## AQLWAYYYTEWK [5t, tested peptide also contains Tat]
VDAC; [4]
  activity / affinity for VDAC on the screening assay (mitoGCaMP2 fluorescence): beneficial effect

## AQWLAYYLTELK [5l, tested peptide also contains Tat]
VDAC; [4]
  activity / affinity for VDAC on the screening assay (mitoGCaMP2 fluorescence): beneficial effect

## AQWLAYYYTELK [5m, tested peptide also contains Tat]
VDAC; [4]
  activity / affinity for VDAC on the screening assay (mitoGCaMP2 fluorescence): equally accommodated

## AQWWAYYFTEWK [5x, tested peptide also contains Tat]
Sciatic nerve explants; 24h, serum-free medium
  percentage of damaged fibers: significantly reduced the level of damaged fibers
VDAC; [4]
  activity / affinity for VDAC on the screening assay (mitoGCaMP2 fluorescence): more significant

## Ac-AQLLAYYFTELKGRKKRRQRRRPPQ-NH2 [3c]
[1]; 25% rat serum, after 5 min, preliminary experiment, read-out: remaining peptide in rat serum
  remaining at 5 min, 66.6 µmol/L: 10%
Sciatic nerve explants; 24h, serum-free medium
  percentage of damaged fibers: same percentage of damaged fibers as the negative control

## [Nle]IAAQLWAYYY [6o]
VDAC; [4]
  activity / affinity for VDAC on the screening assay (mitoGCaMP2 fluorescence): equally accommodated

## [Nle]IAAQWLAYYY [6m]
VDAC; [4]
  activity / affinity for VDAC on the screening assay (mitoGCaMP2 fluorescence): equally accommodated

## [Nle]IAAQWWAYYL [6q]
VDAC; [4]
  activity / affinity for VDAC on the screening assay (mitoGCaMP2 fluorescence): more significant
